Results taken from patent publication EP4206196A1, “PYRIMIDINE SUBSTITUTED DERIVATIVES AS TYK2 INHIBITORS” (Almirall S.A., priority 2021, dated 2023).

Columns and labels:
[1] = target: T1, TYK2 (JH2domain-pseudokinase) (Homo sapiens, UniProt P29597); assay: TYK2 JH2 domain binding assay (KINOMEscan)
T1 construct: TYK2 (JH2domain-pseudokinase)-tagged T7 phage strains were prepared in an E. coli host derived from the BL21 strain; made in house; host or cells: E. coli BL21-derived host (T7 phage) or HEK-293 cells
T1 sequence (P29597 589-875 limits assumed): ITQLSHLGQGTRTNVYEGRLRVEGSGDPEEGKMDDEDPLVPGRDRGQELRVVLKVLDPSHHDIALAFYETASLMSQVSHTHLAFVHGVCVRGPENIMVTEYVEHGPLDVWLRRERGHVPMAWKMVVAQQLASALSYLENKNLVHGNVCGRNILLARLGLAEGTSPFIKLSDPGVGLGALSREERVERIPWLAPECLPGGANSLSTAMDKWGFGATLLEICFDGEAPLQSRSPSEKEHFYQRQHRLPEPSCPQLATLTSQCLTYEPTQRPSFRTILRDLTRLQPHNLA
Protocol: TYK2 (JH2domain-pseudokinase) KINOMEscan assay. For the assay, TYK2 (JH2domain-pseudokinase)-tagged T7 phage strains were prepared in an E. coli host derived from the BL21 strain.E. coli were grown to log-phase and infected with T7 phage and incubated with shaking at 32°C until lysis. The lysates were centrifuged and filtered to remove cell debris. The remaining TYK2 (JH2domain-pseudokinase) were produced in HEK-293 cells and subsequently tagged with DNA for qPCR detection. Streptavidin-coated magnetic beads were treated with biotinylated small molecule ligands for 30 minutes at room temperature to generate affinity resins for kinase assays. The liganded beads were blocked with excess biotin and washed with blocking buffer (SeaBlock (Pierce), 1% BSA, 0.05% Tween 20, 1 mM DTT) to remove unbound ligand and to reduce non-specific binding. Binding reactions were assembled by combining TYK2 (JH2domain-pseudokinase), liganded affinity beads, and test compounds in 1x binding buffer (20% SeaBlock, 0.17x PBS, 0.05% Tween 20, 6 mM DTT). Test compounds were prepared as 111X stocks in 100% DMSO. Kds were determined using an 11-point 3-fold compound dilution series with three DMSO control points. All compounds for Kd measurements are distributed by acoustic transfer (non-contact dispensing) in 100% DMSO. The compounds were then diluted directly into the assays such that the final concentration of DMSO was 0.9%. All reactions performed in polypropylene 384-well plate. Each was a final volume of 0.02 ml. The assay plates were incubated at room temperature with shaking for 1 hour and the affinity beads were washed with wash buffer (1x PBS, 0.05% Tween 20). The beads were then re-suspended in elution buffer (1x PBS, 0.05% Tween 20, 0.5 µM non-biotinylated affinity ligand) and incubated at room temperature with shaking for 30 minutes. The kinase concentration in the eluates was measured by qPCR. […]
An 11-point 3-fold serial dilution of each test compound was prepared in 100% DMSO at 100x final test concentration and subsequently diluted to 1x in the assay (final DMSO concentration = 1%). Most Kds were determined using a compound top concentration = 30,000 nM. If the initial Kd determined was < 0.5 nM (the lowest concentration tested), the measurement was repeated with a serial dilution starting at a lower top concentration.
Curves were fitted using a non-linear least square fit with the Levenberg-Marquardt algorithm. […] TABLE 1: Kd Affinities for Tyk2 JH2 Domain Binding Assay.

[2] = test system: STAT1/3 through TYK2/JAK1; assay: IFNa induced STAT phosphorylation in HEK293 cells (SIE-bla reporter gene); type: cell-based; conditions: Homo sapiens, HEK293; HEK293T-sie-bla cells, IFNa at EC80, 4 hours; read-out: Inhibition of IFNa induced STAT phosphorylation HEK293 cells IC50
Protocol: Stimulation of HEK293T-sie-bla cells with interferon alpha (INFa) activates the signaling pathway of STAT1/3 through TYK2/JAK1. In this assay, measurement of the activity of the reporter gene […]-lactamase expression was used as the readout.
CellSensorTM SIE-bla HEK293T cell line were purchased from Thermo Fisher Scientific (ref. #K1649B) and cultured as specified by the provider. A number of 30.000 cells per well (40 µl) were plated in a 384-well plate (Corning ref.# 3712) and cultured overnight at 37°C with 5% CO2 in a complete Optimem media (ThermoFisher ref. #11058-021) containing 0.5% (v/v) heat inactivated dialyzed FBS (Life Technologies ref. #26400044), 10 µM non-essential aminoacids NEAA (Sigma ref. #M7145), 100 µM Sodium Pyruvate (Gibco ref. #11360-039) and 100 U/mL Penicillin (Sigma ref. #P0781). Compounds were initially dissolved in 100% DMSO. Compound curves were then prepared using a 1/5 serial dilution (10 dilutions). The dilutions were directly diluted in complete Optimem media at 40-fold their final concentration in 20% DMSO. IFNa initial solution (R&D systems ref. #11100-1) was prepared at 10-fold its EC80 in complete Optimem media. Compounds and IFNa were added simultaneously to the wells with cells and incubated during 4 hours at 37°C (the final DMSO was 0.1%). The […]-lactamase substrate (LifeTechnologies ref.#K1138) was prepared at 6-fold its final concentration as specified by the provider. Then 10 µL of the mixture was added to the wells to stop the stimulation. Plate was left in the dark over-night. Then a FRET reading was performed on an appropriate plate reader.
All experiments were analysed using an ExcelFit template and the four-parameter log equation. […] TABLE 2: IC50 Inhibitions of IFNa induced STAT phosphorylation in HEK293 cells

| Kd [1] | IC50 [2] | Compound |
| --- | --- | --- |
| > 10 nM | > 1000 nM | COc1ccccc1Nc1cc(NC(=O)C2CC2)ncn1 [Example 2, N-[6-(2-methoxyanilino)pyrimidin-4-yl]cyclopropanecarboxamide] |
| 1 to 10 nM | > 1000 nM | COc1c(C)cccc1Nc1cc(NC(=O)C2CC2)ncn1 [Example 3, N-[6-(2-methoxy-3-methyl-anilino)pyrimidin-4-yl]cyclopropanecarboxamide] |
| 1 to 10 nM | > 1000 nM | COc1cccc(Nc2cc(Nc3cc(C)nc(C)n3)ncn2)c1 [Example 5, N6-(2,6-dimethylpyrimidin-4-yl)-N4-(3-methoxyphenyl)pyrimidine-4,6-diamine] |
| > 10 nM | > 1000 nM | COc1c(F)cccc1Nc1cc(Nc2cc(C)nc(C)n2)ncn1 [Example 7, N6-(2,6-dimethylpyrimidin-4-yl)-N4-(3-fluoro-2-methoxy-phenyl) pyrimidine-4,6-diamine] |
| > 10 nM | > 1000 nM | COc1ccc(C)nc1Nc1cc(Nc2cc(C)nc(C)n2)ncn1 [Example 8, N4-(2,6-dimethylpyrimidin-4-yl)-N6-(3-methoxy-6-methyl-2-pyridyl)pyrimidine-4,6-diamine] |
| > 10 nM | > 1000 nM | COc1c(C)cccc1Nc1cc(Nc2cnn(C3CCOCC3)c2)ncn1 [Example 9, N4-(2-methoxy-3-methyl-phenyl)-N6-(1-tetrahydropyran-4-ylpyrazol-4-yl)pyrimidine-4,6-diamine] |
| > 10 nM | > 1000 nM | Cc1cc(Nc2cc(Nc3ccccc3OC(F)(F)F)ncn2)nc(C)n1 [Example 10, N6-(2,6-dimethylpyrimidin-4-yl)-N4-[2-(trifluoromethoxy)phenyl] pyrimidine-4,6-diamine] |
| 0.2 to 1 nM | 10 to 100 nM | Cc1cc(Nc2cc(Nc3ccccc3S(C)(=O)=O)ncn2)nc(C)n1 [Example 11, N6-(2,6-dimethylpyrimidin-4-yl)-N4-(2-methylsulfonylphenyl)pyrimidine-4,6-diamine] |
| > 10 nM | > 1000 nM | CN(c1ccccc1Nc1cc(Nc2ncn(C)n2)ncn1)S(C)(=O)=O [Example 13, N-methyl-N-[2-[[6-[(1-methyl-1,2,4-triazol-3-yl)amino]pyrimidin-4-yl]amino]phenyl]methanesulfonamide] |
| 0.2 to 1 nM | 100 to 1000 nM | CN(c1ccccc1Nc1cc(NC(=O)C2CC2)ncn1)S(C)(=O)=O [Example 14, N-[6-[2-[methyl(methylsulfonyl)amino]anilino]pyrimidin-4-yl]cyclopropanecarboxamide] |
|  | > 1000 nM | COc1ccc(Nc2cc(Nc3cc(C)nc(C)n3)ncn2)c(OC)c1 [Example 17, N4-(2,4-dimethoxyphenyl)-N6-(2,6-dimethylpyrimidin-4-yl)pyrimidine-4,6-diamine] |
| > 10 nM |  | Cc1cc(Nc2cc(Nc3cnccc3N(C)S(C)(=O)=O)ncn2)nc(C)n1 [Example 35, N-[3-[[6-[(2,6-dimethylpyrimidin-4-yl)amino]pyrimidin-4-yl]amino]pyridin-4-yl]-N-methylmethanesulfonamide] |
|  | 100 to 1000 nM | COc1c(Nc2cc(Nc3cc(C)nc(C)n3)ncn2)cccc1-c1ncn(C(F)F)n1 [Example 54, N4-[3-[1-(difluoromethyl)-1,2,4-triazol-3-yl]-2-methoxy-phenyl]-N6-(2,6-dimethylpyrimidin-4-yl)pyrimidine-4,6-diamine] |
|  | > 1000 nM | COc1c(Nc2cc(Nc3cc(C)nc(C)n3)ncn2)cccc1C1CCCCO1 (centres unmarked) [Example 56, N6-(2,6-dimethylpyrimidin-4-yl)-N4-(2-methoxy-3-tetrahydropyran-2-yl-phenyl)pyrimidine-4,6-diamine] |
|  | 10 to 100 nM | COc1c(Nc2cc(Nc3cc(C)nc(C)n3)ncn2)cccc1-c1ncn(CC2CCCOC2)n1 (centres unmarked) [Example 57, N4-(2,6-dimethylpyrimidin-4-yl)-N6-[2-methoxy-3-[1-(tetrahydropyran-3-ylmethyl)-1,2,4-triazol-3-yl]phenyl]pyrimidine-4,6-diamine] |
|  | 100 to 1000 nM | COc1c(Nc2cc(Nc3cc(C)nc(C)n3)ncn2)cccc1-c1ncn(C2CC(O)C2)n1 (centres unmarked) [Example 58, 3-[3-[3-[[6-[(2,6-dimethylpyrimidin-4-yl)amino]pyrimidin-4-yl]amino]-2-methoxy-phenyl]-1,2,4-triazol-1-yl]cyclobutanol] |
|  | 10 to 100 nM | COc1c(Nc2cc(Nc3cc(C)nc(C)n3)ncn2)cccc1-c1ncn(CC2CCCO2)n1 (centres unmarked) [Example 59, N4-(2,6-dimethylpyrimidin-4-yl)-N6-[2-methoxy-3-[1-(tetrahydrofuran-2-ylmethyl)-1,2,4-triazol-3-yl]phenyl]pyrimidine-4,6-diamine] |
|  | 10 to 100 nM | COc1c(Nc2cc(Nc3cc(C)nc(C)n3)ncn2)cccc1-c1ncn(CC2CCOC2)n1 (centres unmarked) [Example 60, N6-(2,6-dimethylpyrimidin-4-yl)-N4-[2-methoxy-3-[1-(tetrahydrofuran-3-ylmethyl)-1,2,4-triazol-3-yl]phenyl]pyrimidine-4,6-diamine] |
|  | > 1000 nM | Cc1cc(Nc2cc(Nc3ccccc3-c3ncn(C)n3)ncn2)nc(C)n1 [Example 79, N6-(2,6-dimethylpyrimidin-4-yl)-N4-[2-(1-methyl-1,2,4-triazol-3-yl)phenyl]pyrimidine-4,6-diamine] |
| 1 to 10 nM |  | COc1cc(-c2nc(C(F)(F)F)n(C)n2)ccc1Nc1cc(Nc2cc(C)nc(C)n2)ncn1 [Example 82, N6-(2,6-dimethylpyrimidin-4-yl)-N4-[2-methoxy-4-[1-methyl-5-(trifluoromethyl)-1,2,4-triazol-3-yl]phenyl]pyrimidine-4,6-diamine] |
|  | > 1000 nM | [2H]C([2H])([2H])N(c1cc(-c2cnn(C)c2C)ccc1Nc1cc(Nc2cc(C)nc(C)n2)ncn1)S(C)(=O)=O [Example 98, N-[5-(1,5-dimethylpyrazol-4-yl)-2-[[6-[(2,6-dimethylpyrimidin-4-yl)amino]pyrimidin-4-yl]amino]phenyl]-N-(trideuteriomethyl)methanesulfonamide] |
|  | < 10 nM | CN=S(C)(=O)c1cc(C2CC2)ccc1Nc1cc(Nc2cc(C)nc(C)n2)ncn1 (centres unmarked) [Example 118, N4-[4-cyclopropyl-2-(N,S-dimethylsulfonimidoyl)phenyl]-N6-(2,6-dimethylpyrimidin-4-yl)pyrimidine-4,6-diamine] |
|  | < 10 nM | Cc1cc(Nc2cc(Nc3ncc(-c4cnn(C)c4C)cc3[S+](C)[O-])ncn2)nc(C)n1 (centres unmarked) [Example 173, N4-[5-(1,5-dimethylpyrazol-4-yl)-3-methylsulfinyl-2-pyridyl]-N6-(2,6-dimethylpyrimidin-4-yl)pyrimidine-4,6-diamine] |
|  | 10 to 100 nM | COc1c(-c2ncn(C)n2)ccnc1Nc1cc(Nc2ccc(F)c(C)n2)ncn1 [Example 174, N4-(5-fluoro-6-methyl-2-pyridyl)-N6-[3-methoxy-4-(1-methyl-1,2,4-triazol-3-yl)-2-pyridyl]pyrimidine-4,6-diamine] |
|  | < 10 nM | Cc1cc(Nc2cc(Nc3ncc(C4CCCCO4)cc3S(C)(=O)=O)ncn2)nc(C)n1 (centres unmarked) [Example 175, 6-N-(2,6-dimethylpyrimidin-4-yl)-4-N-[3-methylsulfonyl-5-(oxan-2-yl)pyridin-2-yl]pyrimidine-4,6-diamine] |
